# Molecular target: 5-HT2A receptors (UniProt P14842)
# Assay: in-vitro affinity to 5-HT2A receptors, [3H]ketanserine displacement (Example A1)
# Type: binding
# Source text: The 5-HT2A receptors are exposed both to [^3H]ketanserine (a substance known for its affinity to the receptor) and also to the test compound. The decrease in the affinity of [^3H]ketanserine to the receptor is an indication of the affinity of the test substance to the 5-HT2A receptor.
row,Compound,IC50
1,"Fc1ccc(-c2ccc(-n3ncc(CNCCc4ccccn4)c3-c3ccco3)cc2)cc1 [Example 604, [1-(4′-Fluorobiphenyl-4-yl)-5-furan-2-yl-1H-pyrazol-4-ylmethyl]-(2-pyridin-2-ylethyl)amine]",0.026 µM
2,"CCC(CO)NCc1cnn(-c2ccc(-c3ccc(F)cc3)cc2)c1-c1ccco1 (stereo not shown) [Example 642, 2-{[1-(4′-Fluorobiphenyl-4-yl)-5-furan-2-yl-1H-pyrazol-4-ylmethyl]amino}butan-1-ol]",0.047 µM
3,"Cc1ccoc1-c1c(CN2CCN(C(=O)OC(C)(C)C)CC2)cnn1-c1ccc(-c2ccc(F)cc2)cc1 [Example 689, tert-Butyl 4-[1-(4′-fluorobiphenyl-4-yl)-5-(3-methyl-2-furanyl)-1H-pyrazol-4-ylmethyl]piperazine-1-carboxylate]",0.22 µM
4,"CN1CCN(c2cnn(-c3ccc(-c4ccc5c(c4)OCO5)cc3)c2-c2ccccc2)CC1 [Example 565, 1-[1-(4-Benzo-1,3-dioxol-5-ylphenyl)-5-phenyl-1H-pyrazol-4-yl]-4-methylpiperazine]",0.01 µM
5,"COc1ccc(-c2ccc(-n3ncc(CN4CCN(C)CC4)c3-c3ccccc3F)cc2)cn1 [Example 648, 1-{5-(2-Fluorophenyl)-1-[4-(6-methoxypyridin-3-yl)phenyl]-1H-pyrazol-4-ylmethyl}-4-methylpiperazine]",0.053 µM
6,"COCCN1CCN(Cc2cnn(-c3ccc(-c4ccc(F)cc4)cc3)c2-c2ccoc2)CC1 [Example 664, 1-[1-(4′-Fluorobiphenyl-4-yl)-5-furan-3-yl-1H-pyrazol-4-ylmethyl]-4-(2-methoxyethyl)piperazine]",0.085 µM
7,"CCCCNCc1cnn(-c2ccc(-c3ccc(F)cc3)cc2)c1-c1ccco1 [Example 677, Butyl-[1-(4′-fluorobiphenyl-4-yl)-5-furan-2-yl-1H-pyrazol-4-ylmethyl]amine]",0.13 µM
8,"Fc1ccc(-c2ccc(-n3ncc(CN4CCN(CCN5CCCC5)CC4)c3-c3cccc(Cl)c3)cc2)cc1 [Example 703, 1-[5-(3-Chlorophenyl)-1-(4′-fluorobiphenyl-4-yl)-1H-pyrazol-4-ylmethyl]-4-(2-pyrrolidin-1-ylethyl)piperazine]",0.48 µM
9,"CN1CCN(Cc2cnn(-c3ccc(-c4ccc(F)cc4)cc3)c2-c2c(F)cccc2F)CC1 [Example 573, 1-[5-(2,6-Difluorophenyl)-1-(4′-fluorobiphenyl-4-yl)-1H-pyrazol-4-ylmethyl]-4-methylpiperazine]",0.013 µM
10,"CCN(CC)Cc1cnn(-c2ccc(-c3ccc(F)cc3)cc2)c1-c1ccoc1 [Example 662, Diethyl-[1-(4′-fluorobiphenyl-4-yl)-5-furan-3-yl-1H-pyrazol-4-ylmethyl]amine]",0.078 µM
11,"Fc1ccc(-c2ccc(-n3ncc(CNC4CCCC4)c3-c3ccco3)cc2)cc1 [Example 568, Cyclopentyl-[1-(4′-fluorobiphenyl-4-yl)-5-furan-2-yl-1H-pyrazol-4-ylmethyl]amine]",0.011 µM
12,"CCN(C)Cc1cnn(-c2ccc(-c3ccc(F)cc3)cc2)c1-c1c(C)noc1C [Example 597, [5-(3,5-Dimethylisoxazol-4-yl)-1-(4′-fluorobiphenyl-4-yl)-1H-pyrazol-4-ylmethyl]ethylmethylamine]",0.023 µM
13,"CC(C)(C)OC(=O)NC1CCN(Cc2cnn(-c3ccc(-c4ccc5c(c4)OCCO5)cc3)c2-c2ccco2)CC1 [Example 566, tert-Butyl (1-{1-[4-(2,3-dihydrobenzo-1,4-dioxin-6-yl)phenyl]-5-furan-2-yl-1H-pyrazol-4-ylmethyl}piperidin-4-yl)carbamate]",0.011 µM
14,"O=C1CN(Cc2cnn(-c3ccc(-c4ccc5c(c4)OCO5)cc3)c2-c2ccco2)CCN1 [Example 693, 4-[1-(4-Benzo-1,3-dioxol-5-ylphenyl)-5-furan-2-yl-1H-pyrazol-4-ylmethyl]piperazin-2-one]",0.28 µM
15,"COCCNCc1cnn(-c2ccc(-c3ccc(F)cc3)cc2)c1-c1ccco1 [Example 603, [1-(4′-Fluorobiphenyl-4-yl)-5-furan-2-yl-1H-pyrazol-4-ylmethyl]-(2-methoxyethyl)amine]",0.026 µM
16,"CN1CCN(Cc2cnn(-c3ccc(-c4ccc(F)cc4)cc3)c2-c2ccncc2)CC1 [Example 629, 1-[1-(4′-Fluorobiphenyl-4-yl)-5-pyridin-4-yl-1H-pyrazol-4-ylmethyl]-4-methylpiperazine]",0.037 µM
17,"COc1cc2c(cc1OC)CN(Cc1cnn(-c3ccc(-c4ccc(F)cc4)cc3)c1-c1ccco1)CC2 [Example 697, 2-[1-(4′-Fluorobiphenyl-4-yl)-5-furan-2-yl-1H-pyrazol-4-ylmethyl]-6,7-dimethoxy-1,2,3,4-tetrahydroisoquinoline]",0.35 µM
18,"COc1ccc(-c2ccc(-n3ncc(CN(Cc4nccn4C)Cc4nccn4C)c3-c3ccco3)cc2)cc1 [Example 700, [5-Furan-2-yl-1-(4′-methoxybiphenyl-4-yl)-1H-pyrazol-4-ylmethyl]bis-(1-methyl-1H-imidazol-2-ylmethyl)amine]",0.45 µM
19,"COc1ccc(-c2ccc(-n3ncc(CNCc4cc[nH]n4)c3-c3ccco3)cc2)cc1 [Example 656, [5-Furan-2-yl-1-(4′-methoxybiphenyl-4-yl)-1H-pyrazol-4-ylmethyl]-(1H-pyrazol-3-ylmethyl)amine]",0.071 µM
20,"COc1ccc(-c2c(CN3CCN(C)CC3)cnn2-c2ccc(-c3ccc(F)cc3)cc2)cc1 [Example 671, 1-[1-(4′-Fluorobiphenyl-4-yl)-5-(4-methoxyphenyl)-1H-pyrazol-4-ylmethyl]-4-methylpiperazine]",0.1 µM
21,"O=C(c1ccccc1)C1CCCN(Cc2cnn(-c3ccc(-c4ccc(F)cc4)cc3)c2-c2ccco2)C1 (stereo not shown) [Example 593, 1-{1-[1-(4′-Fluorobiphenyl-4-yl)-5-furan-2-yl-1H-pyrazol-4-ylmethyl]piperidin-3-yl}-1-phenylmethanone]",0.02 µM
22,"COc1cccc(-c2c(CN3CCC(O)C3)cnn2-c2ccc(-c3ccc(F)cc3)cc2)c1 (stereo not shown) [Example 665, 1-[1-(4′-Fluorobiphenyl-4-yl)-5-(3-methoxyphenyl)-1H-pyrazol-4-ylmethyl]pyrrolidin-3-ol]",0.091 µM
23,CCC(CC)CNCc1cnn(-c2ccc(-c3ccc(OC)cc3)cc2)c1-c1ccco1 [Example 637],0.042 µM
24,"OCCCCNCc1cnn(-c2ccc(-c3ccc(F)cc3)cc2)c1-c1ccco1 [Example 617, 4-{[1-(4′-Fluorobiphenyl-4-yl)-5-furan-2-yl-1H-pyrazol-4-ylmethyl]amino}butan-1-ol]",0.032 µM
25,"CCN(CC)Cc1cnn(-c2ccc(-c3ccc(F)cc3)cn2)c1-c1ccco1 [Example 675, Diethyl-{1-[5-(4-fluorophenyl)pyridin-2-yl]-5-furan-2-yl-1H-pyrazol-4-ylmethyl}amine]",0.13 µM
26,"Fc1ccccc1-c1c(CCN2CCOCC2)cnn1-c1ccc(-c2ccccc2)cc1 [Example 632, 4-{2-[1-Biphenyl-4-yl-5-(2-fluorophenyl)-1H-pyrazol-4-yl]ethyl}morpholine]",0.04 µM
27,"OC1CCCN(Cc2cnn(-c3ccc(-c4ccc(F)cc4)cc3)c2-c2ccco2)C1 (stereo not shown) [Example 646, 1-[1-(4′-Fluorobiphenyl-4-yl)-5-furan-2-yl-1H-pyrazol-4-ylmethyl]piperidin-3-ol]",0.05 µM
28,"CN1CCN(Cc2cnn(-c3ccc(-c4ccc[nH]4)cc3)c2-c2ccccc2F)CC1 [Example 653, 1-{5-(2-Fluorophenyl)-1-[4-(1H-pyrrol-2-yl)phenyl]-1H-pyrazol-4-ylmethyl}-4-methylpiperazine]",0.058 µM

# Reference: patent publication US7842695B2, “Substituted pyrazole compounds” (Merck Patent GmbH, priority 2003, dated 2010)
